The text below walks through data of publication PMC4792926, “G9a-mediated methylation of ERα links the PHF20/MOF histone acetyltransferase complex to hormonal gene expression” (Nature Communications, 2016).

The test system of one experiment is endogenous G9a. Briefly: Global histone H3K9me2 western blot (endogenous G9a activity) in MCF-7 cells. The experiment is classed as cell-based, human. The conditions noted are these: 4 and 8 μM for 24 h. As to the method: (§1) Human MCF-7, T-47D, U2OS and HEK293T cells (ATCC) were cultured in DMEM (Cellgro) supplemented with 10% fetal bovine serum (FBS, Sigma). For G9a inhibitor treatment, BIX-01294 (Sigma) was added to the medium, at the indicated concentrations, 24 h before the cells were collected. For shRNA knockdown, 293T cells were co-transfected with pMD2.G and pPAX2 (Addgene) together with pLKO-shRNA constructs or a non-targeting pLKO-shRNA (pLKO-shCtrl). Viral supernatants were harvested after 48 h. For infections, MCF-7 or T-47D cells were incubated with viral supernatants in the presence of 8 μg ml^−1 polybrene. After 48 h, puromycin (2 μg ml^−1) was added to the DMEM. Cells were grown, with selection for 5–7 days to select for stable knockdown cells before oestrogen treatment. For oestrogen treatment, cells were starved in phenol red-free DMEM supplemented with 10% charcoal-stripped FBS (Sigma) for 3–4 days, and 10 nM 17β-estradiol (Sigma) or ethanol (vehicle) were added to the medium (3 or 6 h for gene expression studies, and 15 and 45 min for ChIP experiments) before the cells were collected.

The test system of another experiment is MAGE-A2. Kind of experiment: qPCR of MAGE-A2, a G9a-repressed gene, in MCF-7 cells. The experiment is classed as cell-based, human. Particulars: 4 and 8 μM for 24 h, mean +/- S.E.M. of two experiments. As to the method:
as §1, with “For oestrogen treatment, cells were starved in phenol red-free DMEM supplemented with 10% charcoal-stripped FBS (Sigma) for 3–4 days, and 10 nM 17β-estradiol (Sigma) or ethanol (vehicle) were added to the medium (3 or 6 h for gene expression studies, and 15 and 45 min for ChIP experiments) before the cells were collected.” left out
Reverse transcription and real-time PCR were performed as described previously. mRNA was prepared using the RNeasy Plus kit (Qiagen) and reverse transcribed using the First Strand Synthesis kit (Invitrogen). Quantitative real-time RT–PCR (qPCR) was performed on an ABI 7500-FAST Sequence Detection System using the Power SYBR Green PCR Master Mix (Applied Biosystems). Gene expression was calculated following normalization to GAPDH levels using the comparative Ct (cycle threshold) method and is shown as ‘Fold' relative to the expression of each gene in the control cells without E2 treatment that was arbitrarily set as ‘1'. […]
In general terms: Quantitative PCR measures a nucleic acid by following its amplification.

Experiment [1] has as its system ERα target genes (GREB1, PR, TFF1). Kind of experiment: qPCR of E2-induced ERα target gene expression in MCF-7 cells. The format is cell-based, human. As to the method: as §1
Reverse transcription and real-time PCR were performed as described previously. mRNA was prepared using the RNeasy Plus kit (Qiagen) and reverse transcribed using the First Strand Synthesis kit (Invitrogen). Quantitative real-time RT–PCR (qPCR) was performed on an ABI 7500-FAST Sequence Detection System using the Power SYBR Green PCR Master Mix (Applied Biosystems). Gene expression was calculated following normalization to GAPDH levels using the comparative Ct (cycle threshold) method and is shown as ‘Fold' relative to the expression of each gene in the control cells without E2 treatment that was arbitrarily set as ‘1'. The primer sequences used for RT–PCR are listed in Supplementary Table 5.

The test system of experiment [2] is MCF-7 cells. Kind of experiment: MCF-7 cell proliferation (cell counting). The experiment is classed as cell-based, human. Particulars: different doses; cell numbers counted for 6 days. The method, then: Human MCF-7, T-47D, U2OS and HEK293T cells (ATCC) were cultured in DMEM (Cellgro) supplemented with 10% fetal bovine serum (FBS, Sigma). For G9a inhibitor treatment, BIX-01294 (Sigma) was added to the medium, at the indicated concentrations, 24 h before the cells were collected. For shRNA knockdown, 293T cells were co-transfected with pMD2.G and pPAX2 (Addgene) together with pLKO-shRNA constructs or a non-targeting pLKO-shRNA (pLKO-shCtrl). Viral supernatants were harvested after 48 h. For infections, MCF-7 or T-47D cells were incubated with viral supernatants in the presence of 8 μg ml^−1 polybrene. After 48 h, puromycin (2 μg ml^−1) was added to the DMEM. […]
(a, b) Growth curves of control (shCtrl) and G9a knockdown (shG9a) MCF-7 cells. Cells from 6 wells were counted in triplicates every two days, for 8 days (a) or 6 days (b) after seeding.
(c, d) G9a is required for cell growth in colony formation assays. […] Colonies arising from control and G9 knockdown MCF-7 cells were counted two weeks after seeding (d)
(e) G9a depletion reduces the anchorage-independent growth of MCF-7 cells. […] After four weeks, colonies were counted. At least 5 fields of view were counted for each well.
(f) The catalytic activity of G9a is required for cell growth. MCF-7 cells treated with the indicated doses of BIX-01249 were counted 6 days after seeding. […]

The subject of experiment [3] is MCF-7 cells. Briefly: Colony formation assay, MCF-7. The format is cell-based, human. As to the method: MCF-7 cells treated with shRNAs or BIX-01294 were seeded in six-well plates (1,000 cells per well) and grown in DMEM plus 10% FBS at 37 °C for 10–14 days. For anchorage-independent cell growth assays, 4,000 MCF-7 cells were suspended in DMEM containing 0.4% agar and seeded into six-well plates pre-coated with a base layer of 0.6% agar and grown at 37 °C for 4 weeks. Cells were fixed, stained with 0.005% crystal violet blue and photographed. Colony numbers were counted using ImageJ software with size cutoff of 75 μm. Results were quantitated from three to six wells or three to five views of each well from three independent replicates.

The test system of the next experiment is PHF20–ERα interaction. Briefly: Co-IP of ERα and PHF20 in HEK-293T cells. The format is cell-based, human. The conditions noted are these: 24 h before co-IP; Flag-ERα and Myc-PHF20 co-transfected HEK-293T. The method, then: as §1
For immunoprecipitation (IP) experiments, each cell fraction was incubated with the anti-FLAG M2-conjugated agarose beads overnight at 4 °C. The beads were washed 3–6 times with cell lysis buffer, and the bound proteins were eluted in SDS buffer and analysed by western blot. […]

Experiment [4] has as its system G9a, PHF20 and ERα protein levels. Kind of experiment: Western blot of total G9a, PHF20 and ERα in whole cell extract, HEK-293T cells. The experiment is classed as cell-based, human. Particulars: 24 h; WCE western blot. As to the method: as §1
The subject of another experiment is G9a. The conditions noted are these: cited from earlier work. From the text:
Next, we sought to determine whether the methyltransferase activity of G9a is required for its co-activation of endogenous ERα target genes. […] (Supplementary Fig. 2a,b). Importantly, under these conditions, although a res ...

Entries after “also recorded” stand apart in the source; their conditions may differ.

Regarding `COc1cc2nc(N3CCCN(C)CC3)nc(NC3CCN(Cc4ccccc4)CC3)c2cc1OC` [BIX-01294], the “enzymatic activity of endogenous G9a (global H3K9 methylation levels)” value with endogenous G9a is reported as “effectively inhibited; also recorded: reduces global H3K9me2 levels”. Also, the “derepression of MAGE-A2” value in the experiment with MAGE-A2 is “derepression of MAGE-A2; also recorded: induces the derepression”. Besides, the “E2-induced activation of GREB1 and PR under BIX-01294” value in experiment [1] (4 or 8 μM BIX-01294, 10 nM E2 for 3 h, qPCR, two experiments) is “clearly impaired by BIX-01294 in a dose-dependent manner; also recorded: inhibits E2-induced activation of GREB1 and PR”. Moreover, the “residual E2-dependent response under BIX-01294” value in experiment [1] (BIX-01294-treated MCF-7 cells, E2) is “a residual E2 response was sufficient to maintain GREB1 gene expression; also recorded: there was still an E2-dependent response”. In addition, the “E2-dependent gene activation under BIX-01294” value in experiment [1] (MCF-7, BIX-01294-treated (discussion)) is given as “greatly reduced E2-dependent gene activation”. Also, in the experiment with MCF-7 cells [2], the cell proliferation entry is “inhibited cell proliferation in a dose-dependent manner”. For the same compound, in the experiment with MCF-7 cells [3] (0.5 or 1 μM, 10–14 days, crystal violet), the colony formation entry was “greatly suppressed colony formation”. Moreover, in the experiment with MCF-7 cells [3] (indicated doses, MCF-7 colonies, at least three experiments), the cell survival result is recorded as “inhibits cell survival”. The “PHF20–ERα interaction” value in the experiment with PHF20–ERα interaction was “markedly diminished the PHF20–ERα interaction; also recorded: diminishes the interaction between ERα and PHF20 in cells”. For the same compound, the “total levels of G9a, PHF20 and ERα” value in experiment [4] is “not affected”. In the experiment on G9a, the G9a inhibition selectivity result is on record as “selective G9a inhibitor”.
